“And” between values parts separate entries of the source, which are not always exact repeats. Identical values can stand only once. Like-named read-outs stand apart in the source and are kept apart here.
Key:
hLOX-5 = biological target: T1, hLOX-5 (Homo sapiens, UniProt P09917); experiment: Inhibition of human lipoxygenase-5 (fluorescence-based, Pufahl); format: biochemical; details: three independent experiments
T1 sequence (P09917 1-674): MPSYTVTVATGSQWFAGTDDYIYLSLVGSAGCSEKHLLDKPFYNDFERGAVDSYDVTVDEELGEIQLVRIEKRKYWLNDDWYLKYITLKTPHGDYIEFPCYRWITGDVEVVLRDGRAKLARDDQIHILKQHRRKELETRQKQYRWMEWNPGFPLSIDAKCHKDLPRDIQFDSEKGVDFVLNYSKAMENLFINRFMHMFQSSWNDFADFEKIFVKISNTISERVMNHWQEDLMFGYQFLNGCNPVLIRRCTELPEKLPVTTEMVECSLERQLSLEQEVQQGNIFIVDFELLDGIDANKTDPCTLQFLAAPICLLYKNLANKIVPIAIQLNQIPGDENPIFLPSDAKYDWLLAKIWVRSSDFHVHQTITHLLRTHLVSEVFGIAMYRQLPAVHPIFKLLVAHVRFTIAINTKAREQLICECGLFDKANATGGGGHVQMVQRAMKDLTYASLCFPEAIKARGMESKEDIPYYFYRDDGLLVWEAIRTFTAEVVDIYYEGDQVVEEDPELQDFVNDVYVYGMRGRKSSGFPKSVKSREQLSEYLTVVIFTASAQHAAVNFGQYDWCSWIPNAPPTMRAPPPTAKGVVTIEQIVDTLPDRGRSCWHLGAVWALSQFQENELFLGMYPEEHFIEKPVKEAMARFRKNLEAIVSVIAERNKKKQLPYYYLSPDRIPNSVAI
Procedure: The fluorescence-based enzyme method developed by Pufahl et al. was followed, in 96-well microtiter plates. The assay solution consists of Tris buffer (50 mM, pH 7.5), ethylenediaminetetraacetic acid (EDTA, 2 mM), CaCl2 (2 mM), arachidonic acid (AA, 3 μM), ATP (10 μM), 2',7'-dichlorodihydrofluorescein diacetate (H2DCFDA, 10 μM), hLOX-5 (100 mU/well), bovine glutathione peroxidase (GPx, 25 mU/well) and reduced glutathione (GSH, 1 mM). Compounds to be tested were added to the test solution prior to AA and ATP, and pre-incubated for a period of 10 min at room temperature. Then, the AA and ATP substrates were added; the enzymatic reaction allowed to progress for 20 min and ended by the addition of 40 μL of acetonitrile.
A selection of new hybrids covering different structural motifs was assayed as inhibitors of hLOX-5, followed the method described by Pufahl et al.[55].

recombinant hMAO-A = biological target: T2, recombinant hMAO-A (Homo sapiens, UniProt P21397); experiment: biochemical; format: biochemical; details: for IC50: mean ± SEM (n = 3), 100 µM highest concentration tested
T2 sequence (P21397 1-527): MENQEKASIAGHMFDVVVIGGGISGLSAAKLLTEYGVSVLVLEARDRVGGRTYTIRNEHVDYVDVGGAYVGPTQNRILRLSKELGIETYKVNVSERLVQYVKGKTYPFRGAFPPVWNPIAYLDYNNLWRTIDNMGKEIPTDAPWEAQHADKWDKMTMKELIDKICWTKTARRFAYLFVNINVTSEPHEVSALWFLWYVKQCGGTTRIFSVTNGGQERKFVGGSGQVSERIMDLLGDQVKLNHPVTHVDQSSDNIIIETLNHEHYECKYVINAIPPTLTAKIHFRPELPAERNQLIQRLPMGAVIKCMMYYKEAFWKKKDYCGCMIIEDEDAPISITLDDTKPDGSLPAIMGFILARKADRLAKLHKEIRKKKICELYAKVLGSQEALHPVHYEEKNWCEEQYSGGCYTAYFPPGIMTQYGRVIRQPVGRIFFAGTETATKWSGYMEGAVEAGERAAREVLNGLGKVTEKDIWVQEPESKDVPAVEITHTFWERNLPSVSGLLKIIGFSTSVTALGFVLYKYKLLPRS

[1] = Oxygen radical absorbance capacity assay (ORAC); details: trolox taken as 1.0
hAChE = biological target: T3, hAChE (Homo sapiens, UniProt P22303); experiment: Kinetic analysis of hAChE inhibition (Lineweaver-Burk); format: biochemical
T3 construct: purchased Sigma Chemical Co
T3 sequence (P22303 32-614): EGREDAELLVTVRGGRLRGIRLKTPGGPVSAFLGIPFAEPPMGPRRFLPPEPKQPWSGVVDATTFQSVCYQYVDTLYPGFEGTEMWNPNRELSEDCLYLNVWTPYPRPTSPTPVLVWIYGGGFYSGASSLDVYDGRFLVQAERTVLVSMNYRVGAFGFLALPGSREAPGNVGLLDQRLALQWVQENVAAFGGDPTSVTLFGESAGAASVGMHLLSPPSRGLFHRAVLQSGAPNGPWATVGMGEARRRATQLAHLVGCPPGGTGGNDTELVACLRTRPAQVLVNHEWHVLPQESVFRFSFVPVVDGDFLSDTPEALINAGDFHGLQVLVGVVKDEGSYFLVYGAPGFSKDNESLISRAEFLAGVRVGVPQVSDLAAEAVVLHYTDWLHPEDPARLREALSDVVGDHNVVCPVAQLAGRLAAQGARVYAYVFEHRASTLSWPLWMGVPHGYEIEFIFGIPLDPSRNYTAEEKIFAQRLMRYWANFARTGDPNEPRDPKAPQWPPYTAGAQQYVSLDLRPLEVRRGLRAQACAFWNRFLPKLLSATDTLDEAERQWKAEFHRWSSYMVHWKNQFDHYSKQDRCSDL
Procedure: Figure 3. Kinetic study on the mechanism of hAChE inhibition by hybrid 5. (A) Overlaid Lineweaver-Burk reciprocal plots of hAChE initial velocity at increasing substrate concentration (ATCh, 0.2–1.6 mM) in the absence of inhibitor and in the presence of 5 (0–10 µM) are shown. Lines were derived from a least-squares analysis of the data points. (B) Replot of slopes vs. inhibitor concentration for calculating Ki as the intersection in the x-axis. […]
The initial velocity of enzymatic inhibition was measured at four concentrations of the substrate acetylthiocholine (ATCh, 0.2–1.6 mM), in absence and presence of increasing concentrations of inhibitor 5 (0.5–10 µM). For each inhibitor concentration, plotting reciprocals of velocity vs. ATCh concentration (1/V vs. 1/[ATCh]) gave straight lines that were fitted by least-squares analysis (Figure 3). […]

[2] = system: adult mice SGZ-derived NSCs; experiment: Neurogenic assay on SGZ-derived neural stem cells grown as neurospheres; format: cell-based, mouse; details: 10 µM, 7 days plus 3 days differentiation, vs. vehicle-treated cultures
Procedure: DAPI was used for nuclear staining.
Neural stem cells were isolated from the SGZ of the dentate gyrus of the hippocampus of adult mice and cultured as NS according to previously published protocols[75]^,[76]. […] Now, NS were adhered onto 100 μg/mL poly-L-lysine-coated coverslips and treated for 3 additional days in the presence of serum but in the absence of exogenous growth factors to induce differentiation[77]. Finally, the expression of neuronal markers was analysed by immunocytochemistry using antibodies linked to neurogenesis: β-III-tubulin polyclonal antibody (TuJ clone; Abcam), a protein expressed at early stages of neurogenesis and a monoclonal microtubule-associated protein type 2 (MAP-2) antibody, a classical marker of late neuronal maturation. To visualise primary antibodies Alexa-fluor-labeled secondary antibodies (Molecular probes) were used. Nuclei were stained with DAPI. Fluorescent representative images were acquired in a LSM710 laser scanning spectral confocal microscope (Zeiss). […]
Compound was added to NS cultures for 7 days and then, NS were fixed to a substrate and allowed to differentiate in the presence of 6 for a 3-days additional period. Then, we evaluated the expression of β-III-tubulin (TuJ-1 clone; green) and microtubule-associated protein 2 (MAP-2, red) antibodies to visualise early and late neuronal maturation, respectively.

[3] = biological target: T4, human recombinant BACE-1 (hBACE-1) (Homo sapiens, UniProt P56817); experiment: Human BACE-1 inhibition FRET assay; format: biochemical
T4 construct: purchased Invitrogen
T4 sequence (P56817 46-501): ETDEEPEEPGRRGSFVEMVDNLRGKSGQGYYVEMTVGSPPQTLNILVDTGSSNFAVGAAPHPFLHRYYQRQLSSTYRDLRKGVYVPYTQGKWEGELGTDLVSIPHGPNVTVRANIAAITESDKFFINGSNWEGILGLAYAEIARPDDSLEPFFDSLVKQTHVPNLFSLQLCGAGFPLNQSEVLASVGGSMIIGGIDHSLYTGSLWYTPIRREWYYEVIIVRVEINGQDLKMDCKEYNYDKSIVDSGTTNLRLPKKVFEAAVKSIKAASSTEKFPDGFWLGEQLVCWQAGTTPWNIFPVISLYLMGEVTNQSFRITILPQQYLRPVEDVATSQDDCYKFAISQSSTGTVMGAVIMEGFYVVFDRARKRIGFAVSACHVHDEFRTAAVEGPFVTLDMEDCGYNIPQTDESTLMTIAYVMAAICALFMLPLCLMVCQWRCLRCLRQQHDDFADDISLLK
Procedure: This experiment was carried out according to the protocol described by the manufacturer (Invitrogen) using a FRET assay[54]. […] The intact substrate is weakly fluorescent and becomes highly fluorescent upon enzymatic cleavage. The assays were conducted in 50 mM sodium acetate buffer, pH 4.5, in a final enzyme concentration (1 U/mL). The mixture was incubated for 60 min at 25 °C under dark conditions and then stopped with 2.5 M sodium acetate.

[4] = mean ± SEM, read-out: hLOX-5 IC50

Row | SMILES | IC50 (hLOX-5; [4]) | preference for hMAO-A compared to hMAO-B (recombinant hMAO-A) | IC50 (recombinant hMAO-A) | hLOX-5 IC50 (hLOX-5; mean ± SEM) | ORAC, trolox equivalents [1] | Ki (hAChE) | mechanism of hAChE inhibition (hAChE; Lineweaver-Burk) | IC50 (hLOX-5; hLOX-5 IC50, mean ± SEM) | number of TuJ-1 and MAP-2 marked cells (neuronal differentiation of NSCs) [2] | inhibition at 10 µM ([3]; 10 µM, read-out: hBACE-1 inhibition percentage) | IC50 ([3]; inhibitor concentrations 0.1–100 µM)
1 | COc1ccc2oc(C(=O)Nc3ccc(CN(C)Cc4ccccc4)cc3)cc(=O)c2c1 [Compound 1, N-(4-((Benzyl(methyl)amino)methyl)phenyl)-6-methoxy-4-oxo-4H-chromene-2-carboxamide] | 12.4 ± 0.5 µM | at least 4.4 times | 1.6 ± 0.4 µM |  |  |  |  |  |  |  | 
2 | CN(Cc1ccccc1)Cc1ccc(NC(=O)c2cc(=O)c3cc(O)ccc3o2)cc1 [Compound 2, N-(4-((Benzyl(methyl)amino)methyl)phenyl)-6-hydroxy-4-oxo-4H-chromene-2-carboxamide] | > 100 µM |  | 7 ± 0.8 µM | inactive | 1.6 mmol of trolox/mmol of tested compound and 1.6 ± 0.2 mmol of trolox/mmol of tested compound |  |  |  |  |  | 
3 | COc1cc2oc(C(=O)Nc3ccc(CN(C)Cc4ccccc4)cc3)cc(=O)c2cc1OC [Compound 5, N-(4-((Benzyl(methyl)amino)methyl)phenyl)-6,7-dimethoxy-4-oxo-4H-chromene-2-carboxamide] | 72.4 ± 2.2 µM |  | 9 ± 0.1 µM |  |  | 0.95 µM | a mixture of competitive and non-competitive mechanisms |  |  |  | 
4 | COc1cc2oc(C(=O)Nc3cccc(CN(C)Cc4ccccc4)c3)cc(=O)c2cc1OC [Compound 6, N-(3-((Benzyl(methyl)amino)methyl)phenyl)-6,7-dimethoxy-4-oxo-4H-chromene-2-carboxamide] |  |  | > 100 µM |  |  |  |  | 30 µM and 30.4 µM | clearly increased | ~80% | 6.7 ± 0.8 µM

Source: paper PMC6407579, “New flavonoid – N,N-dibenzyl(N-methyl)amine hybrids: Multi-target-directed agents for Alzheimer´s disease endowed with neurogenic properties” (Journal of Enzyme Inhibition and Medicinal Chemistry, 2019)
